Columns and labels:
[1] = MTT cytotoxicity in combination with micelles; type: cell-based; conditions: dog, MDCKII wildtype and hNPC1L1/MDCKII cells, Figure S2, read-out: LC50 in combination with micelles
Protocol: MDCKII, hNPC1L1/MDCKII, and HepG2 cells were seeded in 96-well microtiter plates on day 0 at densities of 3000 cells/well. On day 1, tested compounds (73 mM stock solution in DMSO) were added in five consecutive 10-fold dilutions (10^−8 to 10^−4 mol/L) and incubated for 72 h. Cytotoxicity of the compounds was assessed on day 4 by the MTT cell proliferation assay (Sigma–Aldrich, Germany) which detects mitochondrial dehydrogenase activity in viable cells. The results are expressed as LC50 and the values for each compound were calculated from dose–response curves using linear regression analysis. Each concentration was tested in quadruplicate in three independent experiments. Toxicity of the compounds in combination with micelles was also tested using the same method. MDCKII and hNPC1L1/MDCKII were seeded in 96-well microtiter plates (150 μL medium/well) at a density of 2 × 10^5 cells/mL medium 24 h before the experiment. Micelles were prepared according to the modified method reported by Field et al.. In brief, 0.25 mM oleic acid, 50 μM cholesterol, 10 μM compactin, 50 μM mevalonate, 5 mM Na-taurocholate (Sigma–Aldrich, Germany) in DMEM/10% FCS were mixed and sonicated. Following the micellar formation, compounds 1, 5, 6, and 5/6 (70:30) (73 mM stock solution in DMSO) were added to the medium and vortexed to obtain the final concentrations of the compounds (25, 50, 100, 150, 200 μM) and applied to the cells for 1 h. Thereafter, cytotoxicity was determined using the MTT assay.
Figure S2. In vitro cytotoxicity of the compounds 5, 6, and 5/6 (70:30) in combination with micelles. Cytotoxicity of the newly synthesized compounds was determined in (A) MDCKII wildtype and (B) hNPC1L1/MDCKII cells. The cells were incubated with the indicated concentrations of the compounds in Medium B (0.25 mM oleic acid, 50 μM free cholesterol, 10 μM compactin, 50 μM mevalonate, 5 mM Na-taurocholate in DMEM supplemented with 5% LPDS) for 1 h. The results are expressed as percentage of the survival of cells treated with the compound compared to untreated cells. Data represent mean ± S.E.M. of three independent experiments.

human NPC1L1 = biological target: T1, human NPC1L1 (Homo sapiens, UniProt Q9UHC9); experiment: In vitro [3H]cholesterol uptake assay in hNPC1L1/MDCKII cells; type: cell-based; conditions: for IC50: 1 h, read-out: IC50, cholesterol uptake inhibition; for inhibition at 120 µM: MDCK-II, maximum at 120 μM, compared to untreated cells
T1 construct: expressed in transfected cells
T1 sequence (Q9UHC9 22-1359): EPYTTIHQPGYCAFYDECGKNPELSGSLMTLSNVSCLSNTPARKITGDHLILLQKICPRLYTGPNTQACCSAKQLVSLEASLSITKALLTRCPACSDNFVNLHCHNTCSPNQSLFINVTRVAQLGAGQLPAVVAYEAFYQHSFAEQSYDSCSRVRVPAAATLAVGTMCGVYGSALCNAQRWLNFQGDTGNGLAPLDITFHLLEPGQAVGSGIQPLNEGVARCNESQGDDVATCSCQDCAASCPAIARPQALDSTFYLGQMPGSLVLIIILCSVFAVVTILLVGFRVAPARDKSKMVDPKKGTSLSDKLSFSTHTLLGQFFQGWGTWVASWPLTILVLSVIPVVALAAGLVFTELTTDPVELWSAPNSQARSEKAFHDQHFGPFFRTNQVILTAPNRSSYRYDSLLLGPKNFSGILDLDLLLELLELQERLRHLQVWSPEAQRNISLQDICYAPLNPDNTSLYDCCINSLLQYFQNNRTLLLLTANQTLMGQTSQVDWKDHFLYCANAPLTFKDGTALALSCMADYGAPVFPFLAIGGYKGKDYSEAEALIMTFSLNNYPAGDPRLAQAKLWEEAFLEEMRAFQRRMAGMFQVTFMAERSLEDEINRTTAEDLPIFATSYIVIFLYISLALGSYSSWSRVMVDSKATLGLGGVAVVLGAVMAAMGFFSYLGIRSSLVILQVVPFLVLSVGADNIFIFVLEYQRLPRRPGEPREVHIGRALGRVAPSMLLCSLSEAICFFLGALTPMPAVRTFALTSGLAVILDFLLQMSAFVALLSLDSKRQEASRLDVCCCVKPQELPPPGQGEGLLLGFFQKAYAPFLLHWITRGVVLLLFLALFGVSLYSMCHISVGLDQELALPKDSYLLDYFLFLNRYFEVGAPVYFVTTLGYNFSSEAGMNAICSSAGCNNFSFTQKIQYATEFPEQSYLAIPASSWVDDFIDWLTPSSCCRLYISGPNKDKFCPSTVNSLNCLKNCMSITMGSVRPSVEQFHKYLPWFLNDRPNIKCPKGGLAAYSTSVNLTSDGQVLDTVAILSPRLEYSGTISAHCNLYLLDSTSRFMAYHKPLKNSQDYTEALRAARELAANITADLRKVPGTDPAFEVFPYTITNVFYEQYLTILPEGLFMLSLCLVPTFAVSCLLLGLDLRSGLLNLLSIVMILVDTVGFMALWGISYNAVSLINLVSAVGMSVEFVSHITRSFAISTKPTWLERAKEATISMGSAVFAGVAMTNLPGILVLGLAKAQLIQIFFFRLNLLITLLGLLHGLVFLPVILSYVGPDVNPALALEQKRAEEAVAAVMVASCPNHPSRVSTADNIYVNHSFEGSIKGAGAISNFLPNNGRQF
Protocol: Medium A contained DMEM plus 100 units/mL penicillin and 100 μg/mL streptomycin supplemented with 5% lipoprotein-deficient serum (density > 1.21 g/mL, prepared from FCS by ultracentrifugation). Cholesterol Replenishing Medium (Medium B) was prepared according to the modified method reported by Field et al.. In brief, 0.25 mM oleic acid, 50 μM free cholesterol, 10 μM compactin, 50 μM mevalonate, 5 mM Na-taurocholate (Sigma–Aldrich, Germany), and [^3H]cholesterol (0.18 μCi/mL medium, [1,2–3H(N)] cholesterol, 1 mCi/mL (ARC Inc., USA)) in Medium A were mixed and sonicated. Following the micellar formation, compounds 1, 5, 6, 5/6 (70:30), and 6/5 (85:15) (73 mM stock solution in DMSO) were added to Medium B and vortexed to obtain the final concentrations (10, 30, 60, 90, 120, 150, 200 μM).
MDCKII wildtype and hNPC1L1/MDCKII cells were seeded in 24-well plates at a density of 5 × 10^5 cells/mL medium (500 μL medium/well) in Medium A 24 h before the treatment. Cells were washed once with PBS and incubated in Medium B (500 μL medium/well) containing micelles and tested compounds in indicated concentrations for 1 h. Following the incubation, the medium was removed and cells were washed three times with ice-cold 0.2% free fatty acid-free BSA. Cells were lysed and radioactivity in the lysate (100 μL) was determined by liquid scintillation counting. Protein concentrations of the lysates were determined with the DC Protein Assay (Bio-Rad, USA). The results were calculated as cpm/mg protein and expressed as percentage of inhibition compared to untreated cells. Each concentration was tested in duplicate in three independent experiments.

SMILES: O=C1[C@H](NC[C@H](O)c2ccc(F)cc2)[C@@H](c2ccc(O)cc2)N1c1ccc(F)cc1 [Compound 5]
- CC50 at 1 h [1]: > 100 µM
- IC50 (human NPC1L1): 72 µM
- inhibition at 120 µM (human NPC1L1): 50 to 55%

SMILES: O=C1[C@H](NC[C@@H](O)c2ccc(F)cc2)[C@@H](c2ccc(O)cc2)N1c1ccc(F)cc1 [Compound 6, (3R,4R)-3-[(2S)-2-(4-fluorophenyl)-2-hydroxyethylamino]-1-(4-fluorophenyl)-4-(4-hydroxyphenyl)azetidin-2-one]
- CC50 at 1 h [1]: > 100 µM
- IC50 (human NPC1L1): 80 µM
- inhibition at 120 µM (human NPC1L1): 50 to 55%

SMILES: O=C1[C@H](CC[C@H](O)c2ccc(F)cc2)[C@@H](c2ccc(O)cc2)N1c1ccc(F)cc1 [Compound 1, ezetimibe, reference compound]
- CC50 at 1 h [1]: > 100 µM
- effect on cholesterol uptake (human NPC1L1; Figure S3): inhibited cholesterol uptake

SMILES: O=C1[C@H](NCC(O)c2ccc(F)cc2)[C@@H](c2ccc(O)cc2)N1c1ccc(F)cc1 (mixture of isomers) [5/6 (70:30), (3R,4R)-3-[(2R/S)-2-(4-fluorophenyl)-2-hydroxyethylamino]-1-(4-fluorophenyl)-4-(4-hydroxyphenyl)azetidin-2-one]
- CC50 at 1 h [1]: > 100 µM
- IC50 (human NPC1L1): 60 µM
- inhibition at 120 µM (human NPC1L1): 50 to 55%

— publication PMC4237514, “Novel amino-β-lactam derivatives as potent cholesterol absorption inhibitors” (European Journal of Medicinal Chemistry, 2014)
